# Experimental data as given in patent US20230192700A1, “PYRAZOLOPYRAZINES ACTING ON CANCERS VIA INHIBITION OF CDK12” (Bayer Aktiengesellschaft, priority 2020, published 2023).
# Key:
# [1] = molecular target: T1, CDK12/CyclinK (Homo sapiens, UniProt Q9NYV4); assay: CDK12/CycK high ATP kinase assay (TR-FRET); format: biochemical; details: 2 mM ATP (high ATP); median; read-out: CDK12/CyclinK, 2 mM ATP (high ATP), IC50 - [mol/l] (median)
# T1 construct: His-CDK12 (aa Q696-S1082); made in house; host or cells: Hi-5 insect cells (baculovirus co-infection with CycK and yeast CAK1)
# T1 sequence (Q9NYV4 with tags, fused parts or gaps): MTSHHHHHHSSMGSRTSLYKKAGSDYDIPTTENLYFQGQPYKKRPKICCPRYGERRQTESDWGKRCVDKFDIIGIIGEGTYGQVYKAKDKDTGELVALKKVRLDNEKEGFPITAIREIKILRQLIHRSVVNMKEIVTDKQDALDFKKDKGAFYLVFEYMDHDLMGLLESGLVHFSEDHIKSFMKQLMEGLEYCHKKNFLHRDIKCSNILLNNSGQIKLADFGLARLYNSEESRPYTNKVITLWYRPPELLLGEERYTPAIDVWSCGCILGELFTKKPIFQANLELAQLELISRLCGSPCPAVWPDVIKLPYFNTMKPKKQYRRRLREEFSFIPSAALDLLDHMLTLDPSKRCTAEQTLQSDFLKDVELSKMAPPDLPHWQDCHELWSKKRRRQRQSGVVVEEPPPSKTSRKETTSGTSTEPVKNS
# T1 sequence (O75909 with tags, fused parts or gaps partner limits assumed): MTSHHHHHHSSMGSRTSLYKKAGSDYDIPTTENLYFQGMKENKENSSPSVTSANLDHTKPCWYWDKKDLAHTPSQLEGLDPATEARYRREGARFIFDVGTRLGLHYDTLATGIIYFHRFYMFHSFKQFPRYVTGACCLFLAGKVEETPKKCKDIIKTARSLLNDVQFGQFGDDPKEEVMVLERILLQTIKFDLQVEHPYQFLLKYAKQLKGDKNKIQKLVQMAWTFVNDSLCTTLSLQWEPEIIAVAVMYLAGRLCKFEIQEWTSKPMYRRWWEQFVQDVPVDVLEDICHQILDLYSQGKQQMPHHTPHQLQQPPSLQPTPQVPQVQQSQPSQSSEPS
# Method in brief: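 Human His-tagged CDK12/CycK (about 0.75 nM) preincubated with compound 15 min, then reacted 60 min at 22 °C with 2 mM ATP and 1 µM biotinylated peptide in HEPES pH 7.5 buffer. Phospho-Ser62 c-Myc epitope detected by TR-FRET (665/620 nm ratio); data normalised to no-inhibitor and no-enzyme controls.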
# [2] = test system: CAL-120 human breast adenocarcinoma cells; assay: Proliferation assay CAL-120 (crystal violet); format: cell-based; details: Homo sapiens, CAL-120, 96 h, CAL-120 cells, 4 days, median, read-out: Prolif-CAL-120— IC50 - [mol/l] (median)
# Method in brief: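 Cells seeded at 4,000/well in medium with 10% fetal calf serum, dosed after 24 h (0.01-10 micromol/L, 0.1% DMSO) and grown 4 days. Crystal violet staining read at 595 nm, normalised to zero-point plate (0%) and untreated cells (100%); IC50 by 4-parameter fit.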
SMILES,IC50 [1] [nM],IC50 [2] [nM]
"CN1CCC(n2nc(NCc3nc4c(Cl)c(F)ccc4[nH]3)c3ncc(C4CC4)nc32)CC1 [Example 31, N-[(4-chloro-5-fluoro-1H-benzimidazol-2-yl)methyl]-6-cyclopropyl-1-(1-methylpiperidin-4-yl)-1H-pyrazolo[3,4-b]pyrazin-3-amine]",> 20000,7.09
"Cc1cccc2[nH]c(CNc3nn(C4CCOCC4)c4nc(C5CC5)cnc34)nc12 [Example 33, 6-cyclopropyl-N-[(4-methyl-1H-benzimidazol-2-yl)methyl]-1-(oxan-4-yl)-1H-pyrazolo[3,4-b]pyrazin-3-amine]",> 20000,22.5
"FC1(F)CCC(n2nc(NCc3nc4ccccc4[nH]3)c3ncc(C4CC4)nc32)CC1 [Example 36, N-[(1H-benzimidazol-2-yl)methyl]-6-cyclopropyl-1-(4,4-difluorocyclohexyl)-1H-pyrazolo[3,4-b]pyrazin-3-amine]",> 20000,48.8
"c1ccc2[nH]c(CNc3nn(C4CCCC4)c4nc(C5CC5)cnc34)nc2c1 [Example 39, N-[(1H-benzimidazol-2-yl)methyl]-1-cyclopentyl-6-cyclopropyl-1H-pyrazolo[3,4-b]pyrazin-3-amine]",> 20000,88.8
"O[C@H]1C[C@@H](n2nc(NCc3nc4ccccc4[nH]3)c3ncc(C4CC4)nc32)C1 [Example 40, cis-3-(3-{[(1H-benzimidazol-2-yl)methyl]amino}-6-cyclopropyl-1H-pyrazolo[3,4-b]pyrazin-1-yl)cyclobutan-1-ol]",> 20000,34.6
"OC[C@H]1C[C@H](n2nc(NCc3nc4ccccc4[nH]3)c3ncc(C4CC4)nc32)C1 [Example 46, [trans-3-(3-{[(1H-benzimidazol-2-yl)methyl]amino}-6-cyclopropyl-1H-pyrazolo[3,4-b]pyrazin-1-yl)cyclobutyl]methanol]",> 20000,20.1
"c1ccc2[nH]c(CNc3nn(C4CCC4)c4nc(C5CC5)cnc34)nc2c1 [Example 49, N-[(1H-benzimidazol-2-yl)methyl]-1-cyclobutyl-6-cyclopropyl-1H-pyrazolo[3,4-b]pyrazin-3-amine]",> 20000,122
"OCCCn1nc(NCc2nc3ccccc3[nH]2)c2ncc(C3CC3)nc21 [Example 60, 3-(3-{[(1H-benzimidazol-2-yl)methyl]amino}-6-cyclopropyl-1H-pyrazolo[3,4-b]pyrazin-1-yl)propan-1-ol]",> 20000,128
"COCCCn1nc(NCc2nc3ccccc3[nH]2)c2ncc(C3CC3)nc21 [Example 61, N-[(1H-benzimidazol-2-yl)methyl]-6-cyclopropyl-1-(3-methoxypropyl)-1H-pyrazolo[3,4-b]pyrazin-3-amine]",> 20000,60.6
"COCCn1nc(NCc2nc3ccccc3[nH]2)c2ncc(C3CC3)nc21 [Example 65, N-[(1H-benzimidazol-2-yl)methyl]-6-cyclopropyl-1-(2-methoxyethyl)-1H-pyrazolo[3,4-b]pyrazin-3-amine]",> 20000,147
"OCCn1nc(NCc2nc3ccccc3[nH]2)c2ncc(C3CC3)nc21 [Example 66, 2-(3-{[(1H-benzimidazol-2-yl)methyl]amino}-6-cyclopropyl-1H-pyrazolo[3,4-b]pyrazin-1-yl)ethan-1-ol]",> 20000,160
"COC(C)(C)CCn1nc(NCc2nc3ccccc3[nH]2)c2ncc(C3CC3)nc21 [Example 67, N-[(1H-benzimidazol-2-yl)methyl]-6-cyclopropyl-1-(3-methoxy-3-methylbutyl)-1H-pyrazolo[3,4-b]pyrazin-3-amine]",> 20000,79.7
"CN(C)CCn1nc(NCc2nc3ccccc3[nH]2)c2ncc(C3CC3)nc21 [Example 68, N-[(1H-benzimidazol-2-yl)methyl]-6-cyclopropyl-1-[2-(dimethylamino)ethyl]-1H-pyrazolo[3,4-b]pyrazin-3-amine]",> 20000,266
"O[C@H]1C[C@H](Cn2nc(NCc3nc4ccccc4[nH]3)c3ncc(C4CC4)nc32)C1 [Example 70, trans-3-[(3-{[(1H-benzimidazol-2-yl)methyl]amino}-6-cyclopropyl-1H-pyrazolo[3,4-b]pyrazin-1-yl)methyl]cyclobutan-1-ol]",> 20000,71.8
"O[C@H]1C[C@@H](Cn2nc(NCc3nc4ccccc4[nH]3)c3ncc(C4CC4)nc32)C1 [Example 71, cis-3-[(3-{[(1H-benzimidazol-2-yl)methyl]amino}-6-cyclopropyl-1H-pyrazolo[3,4-b]pyrazin-1-yl)methyl]cyclobutan-1-ol]",> 20000,52.4
"c1ccc2[nH]c(CNc3nn(CC4CCC4)c4nc(C5CC5)cnc34)nc2c1 [Example 75, N-[(1H-benzimidazol-2-yl)methyl]-1-(cyclobutylmethyl)-6-cyclopropyl-1H-pyrazolo[3,4-b]pyrazin-3-amine]",> 20000,268
"CC(C)(O)CCn1nc(NCc2nc3ccccc3[nH]2)c2ncc(C3CC3)nc21 [Example 76, 4-(3-{[(1H-benzimidazol-2-yl)methyl]amino}-6-cyclopropyl-1H-pyrazolo[3,4-b]pyrazin-1-yl)-2-methylbutan-2-ol]",> 20000,55.7
"Cc1cnc2c(NCc3nc4ccccc4[nH]3)nn(C3CCN(C)CC3)c2n1 [Example 77, N-[(1H-benzimidazol-2-yl)methyl]-6-methyl-1-(1-methylpiperidin-4-yl)-1H-pyrazolo[3,4-b]pyrazin-3-amine]",> 20000,1040

# Continued, values first:
IC50 [1] [nM],IC50 [2] [nM],SMILES
2020,266,"CN1CCC(n2nc(NCc3nc4cc(SC(F)(F)F)ccc4[nH]3)c3ncc(C4CC4)nc32)CC1 [Example 27, 6-cyclopropyl-1-(1-methylpiperidin-4-yl)-N-({5-[(trifluoromethyl)sulfanyl]-1H-benzimidazol-2-yl}methyl)-1H-pyrazolo[3,4-b]pyrazin-3-amine]"
> 20000,9.54,"Cc1ccc2[nH]c(CNc3nn(C4CCN(C)CC4)c4nc(C5CC5)cnc34)nc2c1C [Example 28, 6-cyclopropyl-N-[(4,5-dimethyl-1H-benzimidazol-2-yl)methyl]-1-(1-methylpiperidin-4-yl)-1H-pyrazolo[3,4-b]pyrazin-3-amine]"
> 20000,9.75,"CN1CCC(n2nc(NCc3nc4cc(Cl)c(F)cc4[nH]3)c3ncc(C4CC4)nc32)CC1 [Example 29, N-[(5-chloro-6-fluoro-1H-benzimidazol-2-yl)methyl]-6-cyclopropyl-1-(1-methylpiperidin-4-yl)-1H-pyrazolo[3,4-b]pyrazin-3-amine]"
> 20000,13.4,"CN1CCC(n2nc(NCc3nc4cc(F)c(F)cc4[nH]3)c3ncc(C4CC4)nc32)CC1 [Example 30, 6-cyclopropyl-N-[(5,6-difluoro-1H-benzimidazol-2-yl)methyl]-1-(1-methylpiperidin-4-yl)-1H-pyrazolo[3,4-b]pyrazin-3-amine]"
13800,2.12,"Fc1ccc2[nH]c(CNc3nn(C4CCOCC4)c4nc(C5CC5)cnc34)nc2c1F [Example 32, 6-cyclopropyl-N-[(4,5-difluoro-1H-benzimidazol-2-yl)methyl]-1-(oxan-4-yl)-1H-pyrazolo[3,4-b]pyrazin-3-amine]"
12800,27.5,"OC[C@H]1C[C@@H](n2nc(NCc3nc4ccccc4[nH]3)c3ncc(C4CC4)nc32)C1 [Example 47, [cis-3-(3-{[(1H-benzimidazol-2-yl)methyl]amino}-6-cyclopropyl-1H-pyrazolo[3,4-b]pyrazin-1-yl)cyclobutyl]methanol]"
6170,11,"O[C@H]1CC[C@H](n2nc(NCc3nc4ccccc4[nH]3)c3ncc(C4CC4)nc32)CC1 [Example 50, trans-4-(3-{[(1H-benzimidazol-2-yl)methyl]amino}-6-cyclopropyl-1H-pyrazolo[3,4-b]pyrazin-1-yl)cyclohexan-1-ol]"
> 10000,19.7,"Fc1ccc2[nH]c(CNc3nn(C4CCOCC4)c4nc(C5CC5)cnc34)nc2c1 [Example 53, 6-cyclopropyl-N-[(5-fluoro-1H-benzimidazol-2-yl)methyl]-1-(oxan-4-yl)-1H-pyrazolo[3,4-b]pyrazin-3-amine]"
> 10000,199,"CC(C)(O)Cn1nc(NCc2nc3ccccc3[nH]2)c2ncc(C3CC3)nc21 [Example 69, 1-(3-{[(1H-benzimidazol-2-yl)methyl]amino}-6-cyclopropyl-1H-pyrazolo[3,4-b]pyrazin-1-yl)-2-methylpropan-2-ol]"
> 10000,60.6,"OC1(Cn2nc(NCc3nc4ccccc4[nH]3)c3ncc(C4CC4)nc32)CCC1 [Example 72, 1-[(3-{[(1H-benzimidazol-2-yl)methyl]amino}-6-cyclopropyl-1H-pyrazolo[3,4-b]pyrazin-1-yl)methyl]cyclobutan-1-ol]"
> 10000,110,"OC1(Cn2nc(NCc3nc4ccccc4[nH]3)c3ncc(C4CC4)nc32)CCCC1 [Example 73, 1-[(3-{[(1H-benzimidazol-2-yl)methyl]amino}-6-cyclopropyl-1H-pyrazolo[3,4-b]pyrazin-1-yl)methyl]cyclopentan-1-ol]"
> 10000,46.7,"OCC1(Cn2nc(NCc3nc4ccccc4[nH]3)c3ncc(C4CC4)nc32)CCC1 [Example 74, {1-[(3-{[(1H-benzimidazol-2-yl)methyl]amino}-6-cyclopropyl-1H-pyrazolo[3,4-b]pyrazin-1-yl)methyl]cyclobutyl}methanol]"
